# Measurements: patent US20250320184A1 (SIRONAX LTD., priority 2022, published 2025)
# Target: T1, SARM1 (50-724) (Homo sapiens, UniProt Q6SZW1)
# T1 sequence (Q6SZW1 50-724): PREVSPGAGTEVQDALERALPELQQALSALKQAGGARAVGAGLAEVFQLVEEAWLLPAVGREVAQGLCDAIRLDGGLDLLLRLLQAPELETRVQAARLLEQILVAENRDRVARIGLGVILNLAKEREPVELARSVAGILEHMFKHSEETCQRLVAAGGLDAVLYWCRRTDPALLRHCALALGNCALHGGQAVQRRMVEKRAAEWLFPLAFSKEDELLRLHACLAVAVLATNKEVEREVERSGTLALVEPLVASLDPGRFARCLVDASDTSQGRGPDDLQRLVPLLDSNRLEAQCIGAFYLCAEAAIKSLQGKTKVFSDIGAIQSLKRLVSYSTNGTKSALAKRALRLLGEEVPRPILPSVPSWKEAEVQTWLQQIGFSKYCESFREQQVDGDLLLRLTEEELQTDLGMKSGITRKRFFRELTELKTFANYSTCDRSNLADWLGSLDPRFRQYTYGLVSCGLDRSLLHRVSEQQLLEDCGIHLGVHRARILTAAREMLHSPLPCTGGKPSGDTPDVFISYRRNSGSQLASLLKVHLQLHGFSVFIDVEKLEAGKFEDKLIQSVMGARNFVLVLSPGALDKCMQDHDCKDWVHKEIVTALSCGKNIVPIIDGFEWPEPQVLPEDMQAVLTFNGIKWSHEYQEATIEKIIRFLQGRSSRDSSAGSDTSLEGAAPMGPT
# Test: biochemical
# Method: An enzymatic assay was performed in a 384-well plate using Dulbecco's phosphate-buffered saline (PBS) as the reaction buffer. […] The reaction was initiated by adding a mixture of 200 μM nicotinamide mononucleotide (NMN) as activator and 100 μM NAD^+ as substrate. After 1 h of incubation at room temperature, the reaction was terminated with 10 times volume of 70% acetonitrile, then centrifuged at 3800 rpm for 10 min.
row,IC50,SMILES
1,> 1000 nM,"Cc1c(F)cccc1S(=O)(=O)Nc1ccc2cnn(C(=O)OC(C)(C)C)c2c1 [Compound 24, tert-butyl 6-((3-fluoro-2-methylphenyl)sulfonamido)-1H-indazole-1-carboxylate]"
2,500 to 1000 nM,"Cc1c(F)cccc1S(=O)(=O)Nc1ccc2cn[nH]c2c1 [Compound 25, 3-fluoro-N-(1H-indazol-6-yl)-2-methylbenzenesulfonamide]"
3,< 100 nM,"Cc1cnc2cc(NS(=O)(=O)c3cccc(Cl)c3Cl)ccc2c1 [Compound 26, 2,3-dichloro-N-(3-methylquinolin-7-yl)benzenesulfonamide]"
4,> 1000 nM,"Cc1c(F)cccc1S(=O)(=O)Nc1cccc(N2CCCC2=O)c1 [Compound 27, 3-fluoro-2-methyl-N-(3-(2-oxopyrrolidin-1-yl)phenyl)benzenesulfonamide]"
5,> 1000 nM,"Cc1c(F)cccc1S(=O)(=O)Nc1cccc(N2CCN(C)C2=O)c1 [Compound 28, 3-fluoro-2-methyl-N-(3-(3-methyl-2-oxoimidazolidin-1-yl)phenyl)benzenesulfonamide]"
6,100 to 500 nM,"Cc1nc2cc(NS(=O)(=O)c3cccc(Cl)c3Cl)ccc2s1 [Compound 29, 2,3-dichloro-N-(2-methylbenzo[d]thiazol-5-yl)benzenesulfonamide]"
7,100 to 500 nM,"Cc1cc(S(=O)(=O)Nc2ccc3c(c2)C(=O)NCC3)c(F)cc1F [Compound 30, 2,4-difluoro-5-methyl-N-(1-oxo-1,2,3,4-tetrahydroisoquinolin-7-yl)benzenesulfonamide]"
8,100 to 500 nM,"NC(=O)Cc1ccc(NS(=O)(=O)c2cccc(Cl)c2Cl)cc1 [Compound 31, 2-(4-((2,3-dichlorophenyl)sulfonamido)phenyl)acetamide]"
9,100 to 500 nM,"Cc1c(F)cccc1S(=O)(=O)Nc1ccc2scnc2c1 [Compound 32, N-(benzo[d]thiazol-5-yl)-3-fluoro-2-methylbenzenesulfonamide]"
10,100 to 500 nM,"O=S(=O)(Nc1ccc2sc(Cl)nc2c1)c1cccc(Cl)c1Cl [Compound 33, 2,3-dichloro-N-(2-chlorobenzo[d]thiazol-5-yl)benzenesulfonamide]"
11,> 1000 nM,"O=C1NCCc2ccc(NS(=O)(=O)c3cc(F)c(F)c(F)c3)cc21 [Compound 34, 3,4,5-trifluoro-N-(1-oxo-1,2,3,4-tetrahydroisoquinolin-7-yl)benzenesulfonamide]"
12,> 1000 nM,"O=C1NCCc2ccc(NS(=O)(=O)c3cc(F)c(F)cc3F)cc21 [Compound 35, 2,4,5-trifluoro-N-(1-oxo-1,2,3,4-tetrahydroisoquinolin-7-yl)benzenesulfonamide]"
13,100 to 500 nM,"O=C1NCCc2ccc(NS(=O)(=O)c3ccc(F)c(F)c3F)cc21 [Compound 36, 2,3,4-trifluoro-N-(1-oxo-1,2,3,4-tetrahydroisoquinolin-7-yl)benzenesulfonamide]"
14,< 100 nM,"Cc1ccc(Cl)c(S(=O)(=O)Nc2ccc3cc[nH]c(=O)c3c2)c1Cl [Compound 37, 2,6-dichloro-3-methyl-N-(1-oxo-2H-isoquinolin-7-yl)benzenesulfonamide]"
15,> 1000 nM,"O=C1NCCc2ccc(NS(=O)(=O)c3c(F)cc(F)cc3F)cc21 [Compound 38, 2,4,6-trifluoro-N-(1-oxo-3,4-dihydro-2H-isoquinolin-7-yl)benzenesulfonamide]"
16,< 100 nM,"Cc1c(Cl)cccc1S(=O)(=O)Nc1ccc2c(c1)C(=O)NCCC2 [Compound 39, 3-chloro-2-methyl-N-(1-oxo-2,3,4,5-tetrahydro-1H-benzo[c]azepin-8-yl)benzenesulfonamide]"
17,< 100 nM,"Cc1c(Br)cccc1S(=O)(=O)Nc1ccc2c(c1)C(=O)NCCC2 [Compound 40, 3-bromo-2-methyl-N-(1-oxo-2,3,4,5-tetrahydro-1H-benzo[c]azepin-8-yl)benzenesulfonamide]"
18,< 100 nM,"O=C1NCCCc2ccc(NS(=O)(=O)c3cccc(Cl)c3Cl)cc21 [Compound 41, 2,3-dichloro-N-(1-oxo-2,3,4,5-tetrahydro-1H-benzo[c]azepin-8-yl)benzenesulfonamide]"
19,< 100 nM,"O=S(=O)(Nc1ccc2cccnc2c1)c1cccc(Cl)c1Cl [Compound 42, 2,3-dichloro-N-(quinolin-7-yl)benzenesulfonamide]"
20,100 to 500 nM,"O=S(=O)(Nc1ccc2ccncc2c1)c1cccc(Cl)c1Cl [Compound 43, 2,3-dichloro-N-(isoquinolin-7-yl)benzenesulfonamide]"
21,100 to 500 nM,"O=S(=O)(Nc1ccc2ccccc2c1)c1cccc(Cl)c1Cl [Compound 44, 2,3-dichloro-N-(naphthalen-2-yl)benzenesulfonamide]"

row,IC50,SMILES
1,< 100 nM,"Cc1c(Cl)cc(F)cc1S(=O)(=O)Nc1ccc2cc[nH]c(=O)c2c1 [Compound 45, 3-chloro-5-fluoro-2-methyl-N-(1-oxo-1,2-dihydroisoquinolin-7-yl)benzenesulfonamide]"
2,> 1000 nM,"Cc1c(F)cccc1S(=O)(=O)Nc1cccc(N2CCNC2=O)c1 [Compound 46, 3-fluoro-2-methyl-N-(3-(2-oxoimidazolidin-1-yl)phenyl)benzenesulfonamide]"
3,> 1000 nM,"O=C1NCCc2cc(Cl)c(NS(=O)(=O)c3cccc(Cl)c3Cl)cc21 [Compound 47, 2,3-dichloro-N-(6-chloro-1-oxo-1,2,3,4-tetrahydroisoquinolin-7-yl)benzenesulfonamide]"
4,> 1000 nM,"O=C1NCCc2ccc(NS(=O)(=O)N3CC4CCCC4C3)cc21 (stereo not drawn) [Compound 49, N-(1-oxo-3,4-dihydro-2H-isoquinolin-7-yl)-3,3a,4,5,6,6a-hexahydro-1H-cyclopenta[c]pyrrole-2-sulfonamide]"
5,100 to 500 nM,"Cc1cccc(S(=O)(=O)Nc2ccc3c(c2)C(=O)NCC3)c1C [Compound 50, 2,3-dimethyl-N-(1-oxo-1,2,3,4-tetrahydroisoquinolin-7-yl)benzenesulfonamide]"
6,> 1000 nM,"O=C1NCCc2ccc(NS(=O)(=O)c3cc(F)cc(F)c3F)cc21 [Compound 51, 2,3,5-trifluoro-N-(1-oxo-3,4-dihydro-2H-isoquinolin-7-yl)benzenesulfonamide]"
7,100 to 500 nM,"Cn1ncc2ccc(NS(=O)(=O)c3cccc(Cl)c3Cl)cc21 [Compound 52, 2,3-dichloro-N-(1-methyl-1H-indazol-6-yl)benzenesulfonamide]"
8,100 to 500 nM,"O=C1NCCc2ccc(NS(=O)(=O)c3cccc(F)c3Cl)cc21 [Compound 53, 2-chloro-3-fluoro-N-(1-oxo-1,2,3,4-tetrahydroisoquinolin-7-yl)benzenesulfonamide]"
9,> 1000 nM,"O=C1NCCc2ccc(NS(=O)(=O)c3cccc(F)c3F)cc21 [Compound 54, 2,3-difluoro-N-(1-oxo-1,2,3,4-tetrahydroisoquinolin-7-yl)benzenesulfonamide]"
10,< 100 nM,"O=C1CCCc2ccc(NS(=O)(=O)c3cccc(Cl)c3Cl)cc21 [Compound 55, 2,3-dichloro-N-(8-oxo-5,6,7,8-tetrahydronaphthalen-2-yl)benzenesulfonamide]"
11,100 to 500 nM,"O=c1[nH]cc(Br)c2ccc(NS(=O)(=O)c3cccc(Cl)c3Cl)cc12 [Compound 57, N-(4-bromo-1-oxo-1,2-dihydroisoquinolin-7-yl)-2,3-dichlorobenzenesulfonamide]"
12,< 100 nM,"Cc1n[nH]c2cc(NS(=O)(=O)c3cccc(Cl)c3Cl)ccc12 [Compound 58, 2,3-dichloro-N-(3-methyl-1H-indazol-6-yl)benzenesulfonamide]"
13,100 to 500 nM,"O=S(=O)(Nc1ccc2csnc2c1)c1cccc(Cl)c1Cl [Compound 59, N-(benzo[c]isothiazol-6-yl)-2,3-dichlorobenzenesulfonamide]"
14,> 1000 nM,"O=S(=O)(Nc1ccc2ccccc2n1)c1cccc(Cl)c1Cl [Compound 60, 2,3-dichloro-N-(quinolin-2-yl)benzenesulfonamide]"
15,> 1000 nM,"Cc1cccc(F)c1S(=O)(=O)Nc1ccc2c(c1)C(=O)NCC2 [Compound 61, 2-fluoro-6-methyl-N-(1-oxo-1,2,3,4-tetrahydroisoquinolin-7-yl)benzenesulfonamide]"
16,< 100 nM,"O=c1[nH]cc(F)c2ccc(NS(=O)(=O)c3cccc(Cl)c3Cl)cc12 [Compound 62, 2,3-dichloro-N-(4-fluoro-1-oxo-1,2-dihydroisoquinolin-7-yl)benzenesulfonamide]"
17,100 to 500 nM,"N#Cc1c[nH]c(=O)c2cc(NS(=O)(=O)c3cccc(Cl)c3Cl)ccc12 [Compound 63, 2,3-dichloro-N-(4-cyano-1-oxo-1,2-dihydroisoquinolin-7-yl)benzenesulfonamide]"
18,100 to 500 nM,"O=S(=O)(Nc1cccc(-c2ncco2)c1)c1cccc(Cl)c1Cl [Compound 64, 2,3-dichloro-N-(3-oxazol-2-ylphenyl)benzenesulfonamide]"
19,> 1000 nM,"CC(C)c1c[nH]c(=O)c2cc(NS(=O)(=O)c3cccc(Cl)c3Cl)ccc12 [Compound 66, 2,3-dichloro-N-(4-isopropyl-1-oxo-1,2-dihydroisoquinolin-7-yl)benzenesulfonamide]"
20,100 to 500 nM,COC(=O)Cc1ccc(NS(=O)(=O)c2cccc(Cl)c2Cl)cc1 [Compound 67]
21,< 100 nM,"O=c1[nH]ccc2ccc(NS(=O)(=O)c3c(Cl)ccc(Cl)c3Cl)cc12 [Compound 68, 2,3,6-trichloro-N-(1-oxo-1,2-dihydroisoquinolin-7-yl)benzenesulfonamide]"
